Laboratory results taken from PubChem BioAssay (NCI).
“And” between values parts separate entries of the source, which are not always exact repeats. Equal entries are not always repeated.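 Compound exposure: 48 hours, 5 concentrations, 96-well plates. Here, GI50 denotes the concentration required for 50% inhibition of growth. TGI: concentration producing complete growth inhibition.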

Assays:
Assay in all cases: DTP human tumour cell line panel, 48 h
MDA-MB-435 = tested on: MDA-MB-435
SN12C renal = tested on: SN12C renal
HOP-62 NSCLC = tested on: HOP-62 NSCLC
MDA-MB-231 breast = tested on: MDA-MB-231 breast
BT-549 breast = tested on: BT-549 breast
ACHN renal = tested on: ACHN renal
SK-MEL-2 melanoma = tested on: SK-MEL-2 melanoma
K-562 leukemia = tested on: K-562 leukemia
MOLT-4 leukemia = tested on: MOLT-4 leukemia
UACC-62 melanoma = tested on: UACC-62 melanoma

Row | SMILES | GI50 (MDA-MB-435) | TGI (MDA-MB-435) | GI50 (SN12C renal) | TGI (SN12C renal) | GI50 (HOP-62 NSCLC) | TGI (HOP-62 NSCLC) | GI50 (MDA-MB-231 breast) | TGI (MDA-MB-231 breast) | GI50 (BT-549 breast) | TGI (BT-549 breast) | GI50 (ACHN renal) | TGI (ACHN renal) | GI50 (SK-MEL-2 melanoma) | TGI (SK-MEL-2 melanoma) | GI50 (K-562 leukemia) | GI50 (MOLT-4 leukemia) | GI50 (UACC-62 melanoma) | TGI (UACC-62 melanoma) | TGI (K-562 leukemia) | TGI (MOLT-4 leukemia)
1 | O=C1/C(=C/c2ccc(Cl)cc2)CN(C(=O)CCN2CCC(=NO)CC2)C/C1=C\c1ccc(Cl)cc1 | 0.631 µM | 1.76 µM | 0.637 µM | 1.68 µM | 0.894 µM | 2.41 µM | 0.637 µM | 1.89 µM | 1.47 µM | 2.85 µM | 0.557 µM | 1.56 µM | 1.95 µM | 3.92 µM | 0.23 µM | 0.397 µM | 0.585 µM | 1.72 µM |  | 
2 | CCCCCCCCCCCC1=NC(C)(C)CN1CC(C)O (centres undefined) | 2.05 µM | 4.91 µM | 7.26 µM | 20.3 µM | 4.75 µM | 17.4 µM | 3.82 µM | 13.7 µM | 5.93 µM | 22.2 µM | 10 µM | 21.6 µM | 2.41 µM | 6.12 µM | 1.62 µM | 2.83 µM | 1.78 µM | 3.47 µM | 3.33 µM | 8.51 µM
3 | Clc1ccc2nc(Cl)c3ccccc3c2c1 | 23.6 µM | > 100 µM | 28 µM | > 100 µM | 11.5 µM | 64.2 µM | 7.27 µM | 33.2 µM | 36.1 µM | > 100 µM | 4.04 µM | > 100 µM | 24.3 µM | 60.8 µM | > 100 µM | > 100 µM | 44.1 µM | > 100 µM | > 100 µM | > 100 µM
4 | CC#CC#C/C=C1\C=CC2(OC=CC2OC(C)=O)O1 (centres undefined) |  | > 100 µM |  | 36.5 µM and 31 µM |  | > 100 µM |  | 41.9 µM |  | > 100 µM |  | 33.9 µM | 90.2 µM and 28.9 µM | > 100 µM |  | 6.9 µM and 17.8 µM |  | 52.3 µM and 33.2 µM | > 100 µM and 54.8 µM | 64.6 µM and 53.2 µM
5 | CCOC(=O)c1ccccc1SC(C[N+](=O)[O-])c1ccccc1 (centres undefined) | 2.91 µM | 11.4 µM | 8.17 µM | 20.8 µM | 16.9 µM | 32.1 µM | 9.1 µM | 21.8 µM | 2.31 µM | 5.53 µM | 2.02 µM | 4.51 µM | 18.9 µM | 36.6 µM | 3.01 µM | 4.54 µM | 13.3 µM | 27.1 µM | 16 µM | 30.6 µM
6 | Cc1ccc2nc3c(n2c1)C(=O)C(=O)c1ccccc1-3 | 0.0661 µM | 0.137 µM | 0.153 µM | 0.303 µM | 0.353 µM | 0.961 µM | 0.505 µM | 3.07 µM | 0.168 µM | 0.307 µM | 0.269 µM | 0.88 µM | 0.293 µM | 0.849 µM | 0.0612 µM | 0.434 µM | 0.152 µM | 0.324 µM | 0.286 µM | 1.79 µM
7 | COC1C(CO)OC(n2c3c(Cl)cccc3c3c4c(c5c6cccc(Cl)c6[nH]c5c32)C(=O)NC4=O)C(O)C1O (centres undefined) |  | > 100 µM |  | > 29.2 µM |  | 6.63 µM |  | > 54.7 µM |  | 12.4 µM |  | 1.47 µM |  | > 26.3 µM |  |  |  | 0.257 µM | > 100 µM | > 100 µM
8 | CCCCCCCCCCCCCCCC(=O)OCC1OC(OC)C(NC(=O)N(CCCl)N=O)C(O)C1O (centres undefined) |  | 31.3 µM |  | 39.3 µM |  | 31.9 µM |  | 35.5 µM |  | 99.4 µM |  | 57.2 µM |  | 36.8 µM |  |  |  | 15 µM | 62.1 µM | 29.2 µM
9 | CC(C)C[CH2][Ge]([CH2]CC(C)C)([CH2]CC(C)C)[CH2]CC(C)C | > 100 µM | > 100 µM | > 100 µM | > 100 µM | > 100 µM | > 100 µM | > 100 µM | > 100 µM | > 100 µM | > 100 µM | > 100 µM | > 100 µM | > 100 µM | > 100 µM | > 100 µM | > 100 µM | > 100 µM | > 100 µM | > 100 µM | > 100 µM
10 | CN1CCN(c2ccc3nc(-c4[nH]ncc4Nc4ncnc5c4OCCCN5)[nH]c3c2)CC1 | < 0.01 µM | 0.081 µM | < 0.01 µM | 0.12 µM | 0.0101 µM | 0.062 µM | < 0.01 µM | 0.0423 µM | 0.0108 µM | 0.0384 µM | 0.0139 µM | 0.105 µM | 0.0124 µM | 0.0468 µM | < 0.01 µM | < 0.01 µM | 0.0103 µM | 0.0529 µM | 29.8 µM | 0.315 µM
11 | O=C(Nc1ccc(Oc2ccc(NC(=O)Nc3ccc([N+](=O)[O-])cc3)cc2)cc1)Nc1ccc([N+](=O)[O-])cc1 | 2.16 µM | 8.65 µM | 2.16 µM | > 84.7 µM | 2.64 µM | 7.96 µM | 1.65 µM | 7.2 µM | 2.06 µM | 7.36 µM | 1.92 µM | > 52.6 µM | 2.03 µM | 4.29 µM | 0.826 µM | 1.19 µM | 1.36 µM | 11.1 µM |  | 4.8 µM
12 | Cc1cn([C@H]2C[C@H](O)[C@@H](CO)O2)c(=O)nc1N |  | > 100 µM |  | > 100 µM |  | > 100 µM |  | > 100 µM |  | > 100 µM |  | > 100 µM |  | > 100 µM |  |  |  | > 100 µM | > 100 µM | > 100 µM
13 | c1ccc2cc(C[n+]3ccn(Cc4ccc5ccccc5n4)c3)ccc2c1 | 0.312 µM and 2.46 µM | 1.31 µM and 10.6 µM | 0.347 µM and 2.82 µM | 6.15 µM and 11 µM | 1.4 µM and 5.05 µM | 7.02 µM and 20.3 µM | 0.432 µM and 2.22 µM | 1.97 µM and 8.2 µM | 0.347 µM and 2.54 µM | 1.51 µM and 8.46 µM | 5.54 µM | 18.5 µM | 0.381 µM and 2.44 µM | 1.8 µM and 8.98 µM | 0.585 µM and 1.7 µM | 0.488 µM and 3.19 µM | 0.374 µM and 1.91 µM | 1.5 µM and 5.94 µM | 13.8 µM and 14.8 µM | 5.04 µM and 14.7 µM
14 | COc1cnc2c(c1)C(=O)c1c-2n(CCCNCCN2CCOCC2)c(=O)c2cc([N+](=O)[O-])ccc12 | 0.42 µM | 15.4 µM | 0.0795 µM | 4.59 µM | 0.15 µM | 1.08 µM | 0.63 µM | 2.65 µM | 0.286 µM | 4.13 µM | 0.0365 µM | 0.201 µM | 1.59 µM | 14.4 µM | 0.226 µM | 0.0335 µM | 0.0438 µM | 0.434 µM | 2.59 µM | 0.269 µM
15 | COc1cc2cnc(-c3ccccc3)cc2cc1OC |  | 67.3 µM |  | 22.2 µM |  | > 100 µM |  | 48.2 µM |  | 68.6 µM |  | 73.4 µM |  | 54.6 µM |  |  |  | 23.4 µM | 78.3 µM | 50.7 µM
16 | CCOC(=O)c1ccc(N(C=O)CCC(=O)CCl)cc1 | 0.0908 µM | 0.37 µM | 0.217 µM | 4.27 µM | 0.485 µM | 13.4 µM | 0.275 µM | 1.16 µM | 0.0588 µM | 0.884 µM | 0.432 µM | 1.81 µM | 0.465 µM | 2.14 µM | 0.0353 µM | 0.0433 µM | 0.524 µM | 3.69 µM | > 69.3 µM | 3.88 µM
17 | O=C1NC(=O)[C@@H](c2c[nH]c3ccccc23)[C@@H]1c1c[nH]c2ccccc12 | > 25 µM | > 25 µM | > 25 µM | > 25 µM | > 25 µM | > 25 µM | > 25 µM | > 25 µM | > 25 µM | > 25 µM | > 25 µM | > 25 µM | > 25 µM | > 25 µM | > 25 µM | > 25 µM | > 25 µM | > 25 µM | > 25 µM | > 25 µM
18 | OCCn1cc(-c2cnc3nnn(Cc4ccc5ncccc5c4)c3n2)cn1 | > 100 µM | > 100 µM | > 100 µM | > 100 µM | > 100 µM | > 100 µM | > 100 µM | > 100 µM | > 100 µM | > 100 µM | > 100 µM | > 100 µM | > 76.2 µM | > 100 µM | > 100 µM | > 100 µM | > 100 µM | > 100 µM | > 100 µM | > 100 µM
19 | COc1ccc(/C=N\NC(=O)c2ccc3nc(-c4ccc(Cl)cc4)[nH]c3c2)cc1 | 3.11 µM | 9.84 µM | 2.46 µM | 6.79 µM | 1.88 µM | 6.37 µM | 2.42 µM | 5.45 µM | 3.36 µM | 16.4 µM | 2 µM | 5.04 µM | 3.59 µM | 13.8 µM | 2.69 µM | 4.53 µM | 1.94 µM | 4.47 µM | 11.2 µM | 30.4 µM
